The text below walks through data of paper PMC9114799, “In vitro Evaluation of Isoniazid Derivatives as Potential Agents Against Drug-Resistant Tuberculosis” (Frontiers in Pharmacology, 2022).

In brackets after ≈: the same amount, converted by molar mass. Where two headings read alike, the source gives them in different places. Marks after values point to notes of the source that are not given here.

Experiment [1] deals with M. tuberculosis clinical strain katG (S315T). Particulars: ref Martins et al., cited from earlier work.
Experiment [2] shares this test system. Format: cell-based, Mycobacterium tuberculosis.

On to `COC(=O)c1ccc(/C=N/NC(=O)c2ccncc2)cc1` [Compound N33, methyl (E)-4-((2-isonicotinoylhydrazineylidene)methyl)benzoate], for which, in experiment [1] (katG (S315T) Mtb, 2014), the “MIC (katG S315T)” value is given as 21.2 ^a µM. In addition, in experiment [2], the “activity in the mutated strain” value is reported as “still active” and the “increase of MIC going from wt to S315T” value is given as about 20 fold.
Turning to `NNC(=O)c1ccncc1` [INH, isonicotinoylhydrazide, reference compound], the “MIC (katG S315T)” value in experiment [1] (katG (S315T) Mtb, 2014) is given as 43.8 ^a µM. In addition, the “increase of MIC going from wt to S315T” value in experiment [2] is listed as “approximately 150 fold”.
Turning to `CCCCCCCCCC(=O)NNC(=O)c1ccncc1` [INH-C10, N′-decanoylisonicotinoylhydrazide], the “MIC (katG S315T)” value in experiment [1] (Table S1, 2014 (per Table 2)) was 2.0 g/mL (≈ 6860 mM). Also, in experiment [1] (katG (S315T) Mtb, 2014), the “MIC (katG S315T)” value is 6.9 ^a µM. Besides, in experiment [2], the “gain in efficacy against katG (S315T) strain compared with INH” value is 6 fold and the “increase of MIC going from wt to S315T” value is recorded as about 20 fold.
As for `O=C(N/N=C/c1ccc(Oc2ccccc2)cc1)c1ccncc1` [Compound N34, (E)-N'-(4-phenoxybenzylidene)isonicotinohydrazide], in experiment [1] (katG (S315T) Mtb, 2014), the “MIC (katG S315T)” value is 18.9 ^a µM. In experiment [2], the “activity in the mutated strain” value is “still active” and the “increase of MIC going from wt to S315T” value is given as about 20 fold.
Consider `O=C(NNCc1ccc(Oc2ccccc2)cc1)c1ccncc1` [Compound N34red, N'-(4-phenoxybenzyl)isonicotinohydrazide], for which the “activity in the mutated strain” value in experiment [2] is on record as “completely abolished”.
The same measure, in the same setting: under `COC(=O)c1ccc(CNNC(=O)c2ccncc2)cc1` [Compound N33red, methyl 4-((2-isonicotinoylhydrazinyl)methyl)benzoate] stands “completely abolished”.
